Where “and” joins values, the source holds several entries; their conditions need not be identical. Equal values may be shown once.
System: WM3248 melanoma cells, 486 antibodies
Test: Reverse phase protein arrays (RPPA);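 on CA9.R.C RPPA level: ratio of treated to vehicle (0 µM) normalized linear protein signal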;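 on CD171.M.V RPPA level: ratio of treated to vehicle (0 µM) normalized linear protein signal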;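 on CREB pS133.R.C RPPA level: ratio of treated to vehicle (0 µM) normalized linear protein signal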;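 on Cyclin.B1.R.V RPPA level: ratio of treated to vehicle (0 µM) normalized linear protein signal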
Type: cell-based, Human
Settings: 5 uM
Description: Pellets were snap frozen in liquid nitrogen and shipped to MD Anderson Cancer Center core RPPA facility for RPPA analysis (Table S5). Three biological replicates for each sample were generated.
Nomenclatures on the RPPA heatmaps: name_of_antibody.species_of_antibody.status_of_antibody. V - antibody validated; C - validation of antibody in progress; Q - antibody nonspecific; E – under evaluation; antibodies raised in M - mouse, G - goat, R - rabbit, or T - rat.

CN(C)c1cccc(Nc2cc(-c3ccccc3)nc(C3CCNCC3)n2)c1 [ARN22089, N1,N1-dimethyl-N3-(6-phenyl-2-(piperidin-4-yl)pyrimidin-4-yl)benzene-1,3-diamine]
RPPA signal, antibody Vinculin.M.V (individual replicates): 0.948 and 1.034 and 1.010 | RPPA signal, antibody WIPI1.R.C (individual replicates): 1.016 and 0.609 | RPPA signal, antibody WIPI2.R.C (individual replicates): 0.917 and 1.190 and 1.151 | RPPA signal, antibody WTAP.R.V (individual replicates): 1.007 and 0.770 and 0.970 | RPPA signal, antibody Wee1.R.C (individual replicates): 0.852 and 1.576 and 1.161 | RPPA signal, antibody Wee1_pS642.R.C (individual replicates): 0.857 and 1.327 and 1.158 | RPPA signal, antibody XBP.1.G.C (individual replicates): 1.019 and 0.701 | RPPA signal, antibody XIAP.R.C (individual replicates): 1.016 and 1.128 | RPPA signal, antibody XPA.M.V (individual replicates): 1.083 and 0.917 and 1.035 | RPPA signal, antibody XPF.R.C (individual replicates): 0.939 and 1.048 | RPPA signal, antibody XRCC1.R.C (individual replicates): 1.023 and 0.932 and 0.869 | RPPA signal, antibody YAP.R.C (individual replicates): 1.026 and 0.858 and 1.131 | RPPA signal, antibody YAP_pS127.R.V (individual replicates): 0.924 and 0.808 and 1.102 | RPPA signal, antibody YB1_pS102.R.V (individual replicates): 0.854 and 0.995 | RPPA signal, antibody YES1.R.V (individual replicates): 1.034 and 0.913 and 0.948 | RPPA signal, antibody YTHDF2.R.V (individual replicates): 1.139 and 0.982 and 0.641 | RPPA signal, antibody YTHDF3.R.C (individual replicates): 0.920 and 0.753 | RPPA signal, antibody ZAP.70.R.V (individual replicates): 0.901 and 1.193 | RPPA signal, antibody ZEB1.R.V (individual replicates): 0.874 and 1.035 | C.Raf.R.C RPPA level (replicates): 0.877 and 1.136 | C.Raf_pS338.R.V RPPA level (replicates): 1.205 | CA9.R.C RPPA level (replicates): 0.982 and 0.948 and 1.015 | CD2.M.C RPPA level (replicates): 1.000 and 0.961 and 1.133 | CD4.R.V RPPA level (replicates): 0.886 and 1.117 | CD5.M.C RPPA level (replicates): 1.034 and 0.973 | CD20.R.C RPPA level (replicates): 1.057 and 0.829 and 0.477 | CD26.R.V RPPA level (replicates): 0.893 and 1.128 and 0.797 | CD29.M.V RPPA level (replicates): 0.991 and 0.954 and 1.138 | CD31.M.V RPPA level (replicates): 1.000 and 0.925 and 1.157 | CD38.R.C RPPA level (replicates): 0.963 and 1.191 and 1.116 | CD44.R.C RPPA level (replicates): 0.984 and 0.955 and 0.823 | CD45.M.V RPPA level (replicates): 1.027 and 0.978 and 1.076 | CD49b.M.V RPPA level (replicates): 1.059 and 0.901 and 0.919 | CD68.M.C RPPA level (replicates): 1.053 and 0.950 and 1.032 | CD74.M.V RPPA level (replicates): 0.953 | CD134.R.V RPPA level (replicates): 1.004 and 0.980 and 1.076 | CD171.M.V RPPA level (replicates): 0.646 and 0.896 and 0.990 | CDK1_pT14.R.C RPPA level (replicates): 0.964 and 1.128 | CDK9.R.V RPPA level (replicates): 1.046 and 0.940 and 0.953 | CDKN2A.R.C RPPA level (replicates): 1.033 and 0.974 and 1.120 | CDT1.R.V RPPA level (replicates): 1.009 and 1.034 | CENP.A.R.V RPPA level (replicates): 1.061 and 0.838 and 0.961 | CIITA.R.C RPPA level (replicates): 0.973 and 0.944 and 0.768 | COG3.R.V RPPA level (replicates): 1.020 and 1.162 and 1.108 | CRABP1.R.C RPPA level (replicates): 1.003 and 1.061 | CRABP2.R.V RPPA level (replicates): 1.206 and 0.955 and 0.945 | CREB_pS133.R.C RPPA level (replicates): 0.945 and 1.492 and 0.936 | CSK.R.C RPPA level (replicates): 1.015 and 1.119 and 0.620 | Calnexin.R.V RPPA level (replicates): 0.967 and 1.097 | Caspase.3.cleaved.R.C RPPA level (replicates): 0.926 and 1.159 | Caspase.7.cleaved..R.C RPPA level (replicates): 0.858 and 1.158 | Caspase.8.M.Q RPPA level (replicates): 1.096 and 0.944 | Caspase.8.cleaved.R.C RPPA level (replicates): 0.924 and 1.111 and 1.128 | Caveolin.1.R.V RPPA level (replicates): 0.498 and 0.935 and 1.046 | Cdc6.R.V RPPA level (replicates): 0.936 | Cdc42.R.C RPPA level (replicates): 0.966 and 1.031 | Chk1.M.C RPPA level (replicates): 1.078 and 0.961 | Chk1_pS296.R.V RPPA level (replicates): 0.982 and 1.154 and 1.114 | Chk1_pS345.R.C RPPA level (replicates): 1.000 and 1.084 and 0.861 | Chk2.M.V RPPA level (replicates): 1.157 and 0.671 | Chk2_pT68.R.C RPPA level (replicates): 0.939 and 1.327 and 1.189 | Claudin.7.R.V RPPA level (replicates): 1.057 and 0.909 and 0.755 | Collagen.VI.R.V RPPA level (replicates): 1.076 and 0.844 and 1.257 | Complex.II.Subunit.M.V RPPA level (replicates): 1.008 and 1.014 and 0.777 | Connexin.43.R.C RPPA level (replicates): 1.009 and 1.236 | Coup.TFII.R.C RPPA level (replicates): 0.833 and 1.226 | Cox2.R.C RPPA level (replicates): 1.024 and 0.895 and 1.250 | Cox.IV.R.V RPPA level (replicates): 0.999 and 1.060 and 1.025 | Creb.R.C RPPA level (replicates): 1.026 and 1.133 and 1.082 | CtIP.R.V RPPA level (replicates): 0.829 and 1.057 and 0.997 | Cyclin.B1.R.V RPPA level (replicates): 1.136 and 0.725 and 1.229 | Cyclin.D1.R.C RPPA level (replicates): 1.048 and 0.891 and 1.065 | Cyclin.D3.M.V RPPA level (replicates): 1.309 and 1.005 and 0.824 | Cyclin.E1.R.V RPPA level (replicates): 1.096 and 0.925 and 0.965 | Cyclophilin.F.M.V RPPA level (replicates): 0.978 and 1.019 and 0.727 | D.a.Tubulin.R.V RPPA level (replicates): 0.975 and 1.193 | DAPK1_pS308.M.C RPPA level (replicates): 1.267 and 0.870 and 0.330 | DAPK2.R.C RPPA level (replicates): 0.970 and 1.126 and 1.124 | DDB.1.R.V RPPA level (replicates): 0.890 and 0.958 and 1.524 | DDR1.R.V RPPA level (replicates): 1.024 and 0.829 and 1.002 | DDR1_pY513.R.C RPPA level (replicates): 1.024 and 0.961 and 1.078
